For 31 molecules, IC50 results are on record in patent US9493446B2, “Orexin receptor antagonists which are [ortho bi-(hetero-)aryl]-[2-(meta bi-(hetero-)aryl)-pyrrolidin-1-yl]-methanone derivatives” (Actelion Pharmaceuticals Ltd, priority 2012, dated 2016).

In one assay the target is orexin-1 (Homo sapiens (Human), UniProt O43613). Put plainly: Intracellular calcium measurement (FLIPR), CHO cells expressing human orexin-1 receptor, 3 nM orexin-A. In kind it is cell-based. To be noted: read-out: IC50 OX1. The method, boiled down: (§1)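 HBSS buffer with 0.1% BSA, NaHCO3 and 20 mM HEPES carries both compounds and agonist. Dye: fluo-4 AM (3 μM) with 5 mM probenecid. Compound exposure 120 min; peak signal scored against uninhibited orexin-A response.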
Sequence of orexin-1 (O43613 whole entry): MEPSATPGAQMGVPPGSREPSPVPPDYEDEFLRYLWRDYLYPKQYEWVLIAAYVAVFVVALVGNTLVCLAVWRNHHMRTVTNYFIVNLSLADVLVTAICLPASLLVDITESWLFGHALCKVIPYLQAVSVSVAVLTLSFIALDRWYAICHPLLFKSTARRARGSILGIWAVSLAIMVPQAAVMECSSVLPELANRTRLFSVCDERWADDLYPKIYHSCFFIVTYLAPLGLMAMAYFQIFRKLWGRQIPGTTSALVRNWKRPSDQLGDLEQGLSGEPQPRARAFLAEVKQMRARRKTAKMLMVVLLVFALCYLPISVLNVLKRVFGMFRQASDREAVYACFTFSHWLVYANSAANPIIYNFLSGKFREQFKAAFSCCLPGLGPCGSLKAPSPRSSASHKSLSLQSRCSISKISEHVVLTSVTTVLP
On the technique in general: A change in cytosolic calcium serves as a functional read-out for many receptors and channels.

The target of another assay is human orexin-2 receptor (Homo sapiens (Human), UniProt O43614). Put plainly: Intracellular calcium measurement (FLIPR), CHO cells expressing human orexin-2 receptor, 3 nM orexin-A. It is filed as cell-based. To be noted: read-out: IC50 OX2. The method, boiled down:
as §1

Where [1] appears, read: CHO cells expressing human orexin-1 receptor, FLIPR, 3 nM orexin-A, geometric mean if determined several times.
Where [2] appears, read: CHO cells expressing human orexin-2 receptor, FLIPR, 3 nM orexin-A, geometric mean if determined several times.

Read-outs that look alike come from different tables or passages of the source.

Sequence of human orexin-2 receptor (O43614 whole entry): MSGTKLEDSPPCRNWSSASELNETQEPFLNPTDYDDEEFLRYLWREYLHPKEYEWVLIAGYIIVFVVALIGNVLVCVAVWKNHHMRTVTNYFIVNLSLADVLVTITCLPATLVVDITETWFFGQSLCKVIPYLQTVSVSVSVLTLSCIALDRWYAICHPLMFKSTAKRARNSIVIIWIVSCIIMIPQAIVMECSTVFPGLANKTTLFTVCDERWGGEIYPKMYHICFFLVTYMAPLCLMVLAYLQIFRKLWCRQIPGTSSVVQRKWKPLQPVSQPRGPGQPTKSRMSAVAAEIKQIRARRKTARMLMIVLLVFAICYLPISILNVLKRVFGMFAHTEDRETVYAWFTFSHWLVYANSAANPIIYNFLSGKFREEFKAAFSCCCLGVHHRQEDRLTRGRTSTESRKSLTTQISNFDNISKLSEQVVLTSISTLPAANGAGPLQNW

What is called IC50 is the midpoint of a concentration-inhibition curve. For `Cc1c(F)cccc1-c1nc([C@@H]2CCCN2C(=O)c2cc(Cl)ccc2-n2nccn2)no1` [compound 342], the IC50 stood at 152 nM on orexin-1 (setting [1]) and 13 nM on human orexin-2 receptor.

Regarding `COc1c(F)cccc1-c1nc([C@@H]2CCCN2C(=O)c2cc(Cl)ccc2-n2nccn2)no1` [compound 343], the half-maximal inhibitory concentration (IC50) at orexin-1 (setting [1]) came to 46 nM; at human orexin-2 receptor (setting [2]), 3 nM.

Regarding `CCOc1ncccc1-c1nc([C@@H]2CCCN2C(=O)c2ccc(C)cc2-n2nccn2)no1` [compound 345], the IC50 came to 33 nM at orexin-1 (setting [1]) and 11 nM at human orexin-2 receptor (setting [2]).

Regarding `CCOc1ncccc1-c1nc([C@@H]2CCCN2C(=O)c2cc(Cl)ccc2-n2nccn2)no1` [compound 346], the IC50 at orexin-1 (setting [1]) amounted to 23 nM; at human orexin-2 receptor (setting [2]) it was 2 nM.

In the case of `COc1cc(C(=O)N2CCC[C@H]2c2noc(-c3cccc(Cl)c3OC)n2)c(-n2nccn2)cc1Cl` [compound 347], the IC50 on orexin-1 (setting [1]) was 15 nM; on human orexin-2 receptor (setting [2]), 1 nM.

As to `COc1cc(C(=O)N2CCC[C@H]2c2noc(-c3cccc(Cl)c3OC)n2)c(-n2nccn2)cc1C` [compound 348], the 50% inhibitory concentration (IC50) was determined as 10 nM at orexin-1 (setting [1]) and 1 nM at human orexin-2 receptor (setting [2]).

Turning to `COc1c(Cl)cccc1-c1nc([C@@H]2CCCN2C(=O)c2ccc(Cl)cc2-n2nccn2)no1` [compound 349], the concentration for half-maximal inhibition (IC50) on orexin-1 (setting [1]) is 27 nM; on human orexin-2 receptor (setting [2]), 3 nM.

Turning to `COc1cc(C(=O)N2CCC[C@H]2c2noc(-c3cc(C)ccc3OC)n2)c(-n2nccn2)cc1Cl` [compound 350], the figures for the concentration for half-maximal inhibition (IC50) on orexin-1 (setting [1]) and on human orexin-2 receptor (setting [2]) were 36 nM and 2 nM, respectively.

As to `COc1c(Cl)cccc1-c1nc([C@@H]2CCCN2C(=O)c2cc(C)ccc2-n2nccn2)no1` [compound 351], the results for the IC50 at orexin-1 and on human orexin-2 receptor (setting [2]) were 22 nM and 4 nM, respectively.

Turning to `COc1cc(C)cc(-c2nc([C@@H]3CCCN3C(=O)c3cc(OC)c(Cl)cc3-n3nccn3)no2)c1` [compound 352], the IC50 at orexin-1 (setting [1]) amounted to 19 nM; at human orexin-2 receptor it was 4 nM.

Regarding `COc1ccc(C)c(-c2nc([C@@H]3CCCN3C(=O)c3cc(OC)c(Cl)cc3-n3nccn3)no2)c1` [compound 353], the IC50 on orexin-1 (setting [1]) is 54 nM; at human orexin-2 receptor (setting [2]), 5 nM.

As for `COc1c(Cl)cccc1-c1nc([C@@H]2CCCN2C(=O)c2ccc(C)cc2-n2nccn2)no1` [compound 354], the IC50 came out at 12 nM at orexin-1 (setting [1]) and 5 nM on human orexin-2 receptor (setting [2]).

In the case of `COc1cc(C(=O)N2CCC[C@H]2c2noc(-c3cccc(OC)c3C)n2)c(-n2nccn2)cc1Cl` [compound 355], the 50% inhibitory concentration (IC50) at orexin-1 (setting [1]) is 188 nM; at human orexin-2 receptor (setting [2]) it was 8 nM.

On to `COc1cccc(-c2nc([C@@H]3CCCN3C(=O)c3cc(C)c(C)cc3-n3nccn3)no2)c1C` [compound 356, (4,5-Dimethyl-2-[1,2,3]triazol-2-yl-phenyl)-{(S)-2-[5-(3-methoxy-2-methyl-phenyl)-[1,2,4]oxadiazol-3-yl]-pyrrolidin-1-yl}-methanone], for which the figures for the concentration for half-maximal inhibition (IC50) on orexin-1 (setting [1]) and at human orexin-2 receptor (setting [2]) were 57 nM and 7 nM, respectively.

In the case of `COc1c(Cl)cccc1-c1nc([C@@H]2CCCN2C(=O)c2cc(Cl)ccc2-n2nccn2)no1` [compound 357], the IC50 at orexin-1 (setting [1]) came out at 81 nM; on human orexin-2 receptor it was 17 nM.

Turning to `COc1cc(C(=O)N2CCC[C@H]2c2noc(-c3cccc(OC)c3C)n2)c(-n2nccn2)cc1C` [compound 358, {(S)-2-[5-(3-Methoxy-2-methyl-phenyl)-[1,2,4]oxadiazol-3-yl]-pyrrolidin-1-yl}-(5-methoxy-4-methyl-2-[1,2,3]triazol-2-yl-phenyl)-methanone], the IC50 at orexin-1 (setting [1]) came out at 128 nM; on human orexin-2 receptor (setting [2]), 10 nM.

Turning to `COc1cccc(-c2nc([C@@H]3CCCN3C(=O)c3cc(C)ccc3-n3nccn3)no2)c1C` [compound 359, {(S)-2-[5-(3-Methoxy-2-methyl-phenyl)-[1,2,4]oxadiazol-3-yl]-pyrrolidin-1-yl}-(5-methyl-2-[1,2,3]triazol-2-yl-phenyl)-methanone], the IC50 was found to be 325 nM on orexin-1 (setting [1]) and 30 nM on human orexin-2 receptor (setting [2]).

Turning to `COc1c(Cl)cccc1-c1nc([C@@H]2CCCN2C(=O)c2cc(C)c(C)cc2-n2nccn2)no1` [compound 360], the half-inhibitory concentration (IC50) on orexin-1 (setting [1]) turned out to be 7 nM; at human orexin-2 receptor (setting [2]) it was 1 nM.

Consider `COc1cccc(-c2nc([C@@H]3CCCN3C(=O)c3cc(Cl)ccc3-n3nccn3)no2)c1C` [compound 361], for which the IC50 at orexin-1 (setting [1]) amounted to 127 nM; on human orexin-2 receptor (setting [2]) it was 61 nM.

With `COc1cccc(-c2nc([C@@H]3CCCN3C(=O)c3ccc(Cl)cc3-n3nccn3)no2)c1C` [compound 362], the half-maximal inhibitory concentration (IC50) turned out to be 171 nM at orexin-1 (setting [1]) and 100 nM at human orexin-2 receptor.

Take `COc1c(F)cccc1-c1nc([C@@H]2CCCN2C(=O)c2cccc(Cl)c2-n2nccn2)no1` [compound 363]: the IC50 came to 155 nM on orexin-1 (setting [1]) and 111 nM at human orexin-2 receptor (setting [2]).

`COc1cccc(-c2nc([C@@H]3CCCN3C(=O)c3ccc(C)cc3-n3nccn3)no2)c1C` [compound 364, {(S)-2-[5-(3-Methoxy-2-methyl-phenyl)-[1,2,4]oxadiazol-3-yl]-pyrrolidin-1-yl}-(4-methyl-2-[1,2,3]triazol-2-yl-phenyl)-methanone]: the IC50 turned out to be 265 nM on orexin-1 (setting [1]) and 157 nM at human orexin-2 receptor (setting [2]).

Take `Cc1cc(-n2nccn2)c(C(=O)N2CCC[C@H]2c2noc(-c3ccccc3OC(F)(F)F)n2)cc1Cl` [compound 365]: the figures for the IC50 at orexin-1 (setting [1]) and at human orexin-2 receptor (setting [2]) were 13 nM and 6 nM, respectively.

Take `CCOc1c(F)cccc1-c1nc([C@@H]2CCCN2C(=O)c2cc(Cl)c(C)cc2-n2nccn2)no1` [compound 366]: the results for the IC50 on orexin-1 (setting [1]) and on human orexin-2 receptor (setting [2]) were 5 nM and 3 nM, respectively.

For `COc1cc(C(=O)N2CCC[C@H]2c2noc(-c3cccc(Cl)c3C)n2)c(-n2nccn2)cc1Cl` [compound 367], the IC50 at orexin-1 (setting [1]) was 20 nM; at human orexin-2 receptor (setting [2]), 2 nM.

`COc1cc(C(=O)N2CCC[C@H]2c2noc(-c3cccc(F)c3OC)n2)c(-n2nccn2)cc1Cl` [compound 368]: the results for the IC50 at orexin-1 (setting [1]) and on human orexin-2 receptor (setting [2]) were 11 nM and 1 nM, respectively.

With `CCOc1c(F)cccc1-c1nc([C@@H]2CCCN2C(=O)c2cc(OC)c(Cl)cc2-n2nccn2)no1` [compound 369], the IC50 at orexin-1 (setting [1]) was 15 nM; at human orexin-2 receptor (setting [2]), 2 nM.

As to `CCOc1ncccc1-c1nc([C@@H]2CCCN2C(=O)c2cc(OC)c(Cl)cc2-n2nccn2)no1` [compound 370], the IC50 on orexin-1 (setting [1]) came to 9 nM; at human orexin-2 receptor (setting [2]) it was 1 nM.

With `Cc1cc(-n2nccn2)c(C(=O)N2CCC[C@H]2c2noc(-c3cccc(Cl)c3C)n2)cc1Cl` [compound 371], the IC50 was 18 nM on orexin-1 and 7 nM on human orexin-2 receptor (setting [2]).

`COc1cc(C(=O)N2CCC[C@H]2c2noc(-c3cccc(F)c3C)n2)c(-n2nccn2)cc1F` [compound 372, (4-Fluoro-5-methoxy-2-[1,2,3]triazol-2-yl-phenyl)-{(S)-2-[5-(3-fluoro-2-methyl-phenyl)-[1,2,4]oxadiazol-3-yl]-pyrrolidin-1-yl}-methanone]: the 50% inhibitory concentration (IC50) came to 377 nM at orexin-1 (setting [1]) and 29 nM on human orexin-2 receptor (setting [2]).

For the molecule `COc1cc(C(=O)N2CCC[C@H]2c2noc(-c3cccc(F)c3OC)n2)c(-n2nccn2)cc1F` [compound 373, {(S)-2-[5-(3-Fluoro-2-methoxy-phenyl)-[1,2,4]oxadiazol-3-yl]-pyrrolidin-1-yl}-(4-fluoro-5-methoxy-2-[1,2,3]triazol-2-yl-phenyl)-methanone], the IC50 on orexin-1 (setting [1]) was determined as 212 nM; at human orexin-2 receptor (setting [2]), 5 nM.
